{
  "source": "patent US5013724A",
  "about": "“Process for the sulfation of glycosaminoglycans, the sulfated glycosaminoglycans and their biological applications” (Sanofi Societe Anonyme, priority 1986, dated 1991)",
  "key": {"factor IIa (thrombin) [1]": {"tested_on": "factor IIa (thrombin)", "test": "inhibitory activity towards factor IIa (thrombin) in the presence of HC II", "assay_type": "biochemical", "conditions": "Experiment 1", "description": "(§1) (b) inhibitory activity towards the activated factor II (factor IIa) or thrombin.\n(§2) The results are expressed in μg of product per ml.\n(§3) In this model system, the inhibition of factor IIa is determined by measuring the IC 50 of the test substances in the presence of AT-III and HC II."}, "factor IIa (thrombin) [2]": {"tested_on": "factor IIa (thrombin)", "test": "inhibitory activity towards factor IIa (thrombin) in the presence of AT-III", "assay_type": "biochemical", "conditions": "Experiment 1", "description": "as §1, §2, §3"}, "thrombus formation": {"tested_on": "thrombus formation", "test": "anti-thrombotic activity in vivo in the rabbit, Wessler model (human thromboplastin as thrombogenic agent)", "conditions": "dose of 100 μg/kg", "description": "(d) anti-thrombotic activity in vivo in the rabbit, according to the model of Wessler (such as that described by Wessler, S., Reimer, S. M. and Sheps, M. C., in J. Appl. Physiol. 14 (6), 943-946, 1959).\nThe test substance is injected into the carotid artery, at doses varying from 10 to 500 μg/kg, 3 mn before the administration of the thrombogenic agent (human thromboplastin).\nThe result is expressed as percentage of inhibition of thrombus formation."}, "blood coagulation": {"tested_on": "blood coagulation", "test": "coagulation time by the APTT method", "assay_type": "biochemical", "conditions": "Experiment 1", "description": "(c) measurement of the coagulation time by the APTT method (as described in Caen, J., Larrieu, M. J., and Samama, in Hemostase, paris, Expansion Scientifique Francaise, 1968, pp 133-135).\nIn the present instance, the concentration of the product to be tested necessary for a doubling of the coagulation time is determined.\nThe result is expressed in μg of substance tested per ml."}, "plasma": {"tested_on": "plasma", "test": "additional experiments in plasma on cofactor dependence"}},
  "data": [
    {"substance": "Dermatan sulfate", "values": [
      {"measurement": "Anti-IIa activity, HC II, IC 50", "setting": "factor IIa (thrombin) [1]", "result": 5.8, "unit": "µg/mL"},
      {"measurement": "Anti-IIa activity, AT-III, IC 50", "setting": "factor IIa (thrombin) [2]", "result": 100, "unit": "µg/mL"},
      {"measurement": "prevention of thrombus formation", "setting": "thrombus formation", "result": "~40", "unit": "%"},
      {"measurement": "activity in the APTT model (in words)", "setting": "blood coagulation", "result": "sursulfation increases the activity"},
      {"measurement": "Concentration necessary to double the coagulation time", "setting": "blood coagulation; APTT method", "result": 50, "unit": "µg/mL"},
      {"measurement": "cofactor dependence of the action in plasma", "setting": "plasma", "result": "totally dependent on HC 11"}
    ]}
  ]
}
